Data on two compounds can be found in ChEMBL document CHEMBL2406934, “Orally available and efficacious α4β1/α4β7 integrin inhibitors” (Bioorg Med Chem Lett, 2013).

The source made the active and inactive calls. The calls are words filed in the database; no cut-off is given here.

Data set [1] is described as follows: AUC (0 to infinity) in po dosed rat. The data set is classed as ADME, organism-based. Particulars: plasma. On the set-up: route oral, time infinity.
Data set [2] is described as follows: Cmax in po dosed rat. It counts as ADME, organism-based. Particulars: in vivo. On the set-up: route oral.
For data set [3], the target named is T1, Integrin alpha-4/beta-1 (Homo sapiens, UniProt P05556+P13612). Description: Inhibition of alpha4beta1 integrin-mediated human jurkat cell adhesion to fibronectin in absence of human serum albumin. The data set is classed as protein-complex assay.
T1 sequence (P05556 whole entry): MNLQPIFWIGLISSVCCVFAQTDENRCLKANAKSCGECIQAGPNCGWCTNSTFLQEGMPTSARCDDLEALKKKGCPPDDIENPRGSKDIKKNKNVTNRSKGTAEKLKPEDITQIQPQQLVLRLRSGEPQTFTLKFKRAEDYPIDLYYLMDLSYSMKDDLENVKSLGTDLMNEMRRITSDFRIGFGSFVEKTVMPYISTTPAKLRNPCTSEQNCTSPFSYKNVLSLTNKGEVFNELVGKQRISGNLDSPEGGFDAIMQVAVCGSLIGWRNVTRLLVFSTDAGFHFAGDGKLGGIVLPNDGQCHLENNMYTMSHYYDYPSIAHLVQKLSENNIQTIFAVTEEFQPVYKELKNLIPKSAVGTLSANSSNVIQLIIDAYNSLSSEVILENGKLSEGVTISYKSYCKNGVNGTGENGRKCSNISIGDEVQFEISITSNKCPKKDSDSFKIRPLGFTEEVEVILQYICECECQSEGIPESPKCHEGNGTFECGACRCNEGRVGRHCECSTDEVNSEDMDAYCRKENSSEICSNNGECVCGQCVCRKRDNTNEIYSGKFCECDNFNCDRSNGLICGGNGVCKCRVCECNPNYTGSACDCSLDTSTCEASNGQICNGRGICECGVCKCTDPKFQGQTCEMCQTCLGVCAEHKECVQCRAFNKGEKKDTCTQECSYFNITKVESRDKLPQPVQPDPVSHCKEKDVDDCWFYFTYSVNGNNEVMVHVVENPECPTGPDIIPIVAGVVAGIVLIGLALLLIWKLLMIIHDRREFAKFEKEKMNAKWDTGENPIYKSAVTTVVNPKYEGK
T1 sequence (P13612 whole entry): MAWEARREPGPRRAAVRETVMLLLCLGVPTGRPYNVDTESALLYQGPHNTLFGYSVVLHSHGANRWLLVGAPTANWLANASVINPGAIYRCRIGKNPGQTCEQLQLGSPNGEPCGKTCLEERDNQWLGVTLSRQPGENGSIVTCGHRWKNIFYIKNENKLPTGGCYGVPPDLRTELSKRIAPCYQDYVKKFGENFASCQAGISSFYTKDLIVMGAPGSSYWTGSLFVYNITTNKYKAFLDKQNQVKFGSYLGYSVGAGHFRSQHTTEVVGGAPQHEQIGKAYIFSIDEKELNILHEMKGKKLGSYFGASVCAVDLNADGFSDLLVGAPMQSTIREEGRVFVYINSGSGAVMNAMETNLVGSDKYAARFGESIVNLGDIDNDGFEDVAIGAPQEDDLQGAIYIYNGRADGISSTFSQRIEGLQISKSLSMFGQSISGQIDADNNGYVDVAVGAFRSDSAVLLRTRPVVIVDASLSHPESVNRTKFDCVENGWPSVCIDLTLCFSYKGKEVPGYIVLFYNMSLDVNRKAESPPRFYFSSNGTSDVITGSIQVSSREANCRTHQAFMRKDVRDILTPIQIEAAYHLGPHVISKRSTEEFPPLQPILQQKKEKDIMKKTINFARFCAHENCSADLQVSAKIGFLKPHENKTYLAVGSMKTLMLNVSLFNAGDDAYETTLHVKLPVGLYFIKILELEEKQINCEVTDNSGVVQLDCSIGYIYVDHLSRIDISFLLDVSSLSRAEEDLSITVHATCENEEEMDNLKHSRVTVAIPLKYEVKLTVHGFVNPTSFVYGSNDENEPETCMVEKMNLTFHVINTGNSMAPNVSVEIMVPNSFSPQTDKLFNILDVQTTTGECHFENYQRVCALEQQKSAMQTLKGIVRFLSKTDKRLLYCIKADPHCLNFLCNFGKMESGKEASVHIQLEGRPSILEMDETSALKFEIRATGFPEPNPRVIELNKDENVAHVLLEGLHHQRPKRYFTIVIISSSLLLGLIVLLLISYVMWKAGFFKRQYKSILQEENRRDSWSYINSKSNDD
In data set [4] the target is T1, Integrin alpha-4/beta-1. Description: Inhibition of alpha4beta1 integrin-mediated human jurkat cell adhesion to fibronectin in presence of human serum albumin. It counts as protein-complex assay.
The nature of data set [5]: Plasma concentration in HLA-B27 rat at 100 mg/kg, po bid administered for 11 days measured 12 hrs post last dose. It counts as ADME, organism-based. On the set-up: dose 100 mg/kg, route oral.
Data set [6] relates to Cavia porcellus. Description: Reduction on allergenic encephalomyelitis guinea pig EAE model at 300 mg/kg, po bid. The data set is classed as functional, organism-based. On the set-up: dose 300 mg/kg.
The subject of data set [7] is Liver microsomes. Description: Drug metabolism in human liver microsomes assessed as (S)-2-(2-(ethylamino)-5-(N-isopropylmethylsulfonamido)pyrimidin-4-ylamino)-3-(4-(pyrrolidine-1-carbonyloxy)phenyl)propanoic acid synthesis. It counts as ADME, Microsome. Background: Liver microsomes are a subcellular fraction often used to study metabolism.
Data set [8] relates to Liver microsomes. Description: Drug metabolism in rat liver microsomes assessed as (S)-2-(2-(ethylamino)-5-(N-isopropylmethylsulfonamido)pyrimidin-4-ylamino)-3-(4-(pyrrolidine-1-carbonyloxy)phenyl)propanoic acid synthesis. The data set is classed as ADME, Microsome.
Data set [9] can be described thus: Plasma concentration in rat at 1000 mg/kg, po administered for 10 days measured 24 hrs post last dose. It counts as ADME, organism-based. On the set-up: dose 1000 mg/kg, route oral.
The nature of data set [10]: Plasma concentration in rat at 300 mg/kg, po administered for 10 days measured 24 hrs post last dose. Set-up: dose 300 mg/kg, route oral. It counts as ADME, organism-based.
A short description of data set [11]: Plasma concentration in rat at 100 mg/kg, po administered for 10 days measured 24 hrs post last dose. The data set is classed as ADME, organism-based. On the set-up: dose 100 mg/kg, route oral.
Data set [12] can be described thus: Plasma concentration in rat at 30 mg/kg, po administered for 10 days measured 24 hrs post last dose. The data set is classed as ADME, organism-based. On the set-up: dose 30 mg/kg, route oral.
The test system of data set [13] is Rattus norvegicus. Description: Toxicity in rat assessed as weight gain at 1 to 1000 mg/kg, po after 10 days. It counts as organism-based. On the set-up: dose 1-1000 mg/kg, route oral. Particulars: in vivo, 240 h.
Data set [14] is described as follows: Plasma concentration in rat at 10 mg/kg, po administered for 10 days measured 24 hrs post last dose. The data set is classed as ADME, organism-based. Set-up: dose 10 mg/kg, route oral.
The nature of data set [15]: Plasma concentration in rat at 1000 mg/kg, po after 24 hrs. On the set-up: dose 1000 mg/kg, route oral. The data set is classed as ADME, organism-based.
Data set [16] can be described thus: Plasma concentration in rat at 100 mg/kg, po after 24 hrs. The data set is classed as ADME, organism-based. On the set-up: dose 100 mg/kg, route oral.
The nature of data set [17]: Plasma concentration in rat at 300 mg/kg, po after 24 hrs. It counts as ADME, organism-based. On the set-up: dose 300 mg/kg, route oral.
Data set [18] can be described thus: Plasma concentration in rat at 30 mg/kg, po after 24 hrs. It counts as ADME, organism-based. On the set-up: dose 30 mg/kg, route oral.
Data set [19] can be described thus: Plasma concentration in rat at 10 mg/kg, po after 24 hrs. The data set is classed as ADME, organism-based. Set-up: dose 10 mg/kg, route oral.
Data set [20] can be described thus: Plasma concentration in rat at 3 mg/kg, po after 24 hrs. It counts as ADME, organism-based. On the set-up: dose 3 mg/kg, route oral.
Data set [21] can be described thus: AUC (0 to infinity) in rat at 1000 mg/kg, po. The following applies: plasma. The data set is classed as ADME, organism-based. Set-up: time infinity, dose 1000 mg/kg, route oral.
Data set [22] is described as follows: AUC (0 to infinity) in rat at 300 mg/kg, po. The data set is classed as ADME, organism-based. The following applies: plasma. On the set-up: time infinity, dose 300 mg/kg, route oral.
Data set [23] is described as follows: AUC (0 to infinity) in rat at 30 mg/kg, po. It counts as ADME, organism-based. The following applies: plasma. On the set-up: time infinity, dose 30 mg/kg, route oral.
Data set [24] is described as follows: AUC (0 to infinity) in rat at 100 mg/kg, po. The following applies: plasma. The data set is classed as ADME, organism-based. On the set-up: time infinity, dose 100 mg/kg, route oral.
Data set [25] can be described thus: AUC (0 to infinity) in rat at 10 mg/kg, po. It counts as ADME, organism-based. On the set-up: time infinity, dose 10 mg/kg, route oral. Particulars: plasma.
Data set [26] can be described thus: AUC (0 to infinity) in rat at 3 mg/kg, po. The following applies: plasma. Set-up: time infinity, dose 3 mg/kg, route oral. It counts as ADME, organism-based.
A short description of data set [27]: Cmax in rat at 1000 mg/kg, po. The data set is classed as ADME, organism-based. Set-up: dose 1000 mg/kg, route oral. Particulars: in vivo.
The nature of data set [28]: AUC (0 to infinity) in rat at 1 mg/kg, po. The data set is classed as ADME, organism-based. Set-up: time infinity, dose 1 mg/kg, route oral. Particulars: plasma.
Data set [29] in a line: Cmax in rat at 300 mg/kg, po. It counts as ADME, organism-based. Set-up: dose 300 mg/kg, route oral. Particulars: in vivo.
Data set [30] is described as follows: Cmax in rat at 30 mg/kg, po. It counts as ADME, organism-based. On the set-up: dose 30 mg/kg, route oral. The following applies: in vivo.
A short description of data set [31]: Cmax in rat at 100 mg/kg, po. Set-up: dose 100 mg/kg, route oral. The following applies: in vivo. It counts as ADME, organism-based.
Data set [32] can be described thus: Cmax in rat at 3 mg/kg, po. The data set is classed as ADME, organism-based. On the set-up: dose 3 mg/kg, route oral. Particulars: in vivo.
Data set [33] can be described thus: Cmax in rat at 10 mg/kg, po. Particulars: in vivo. On the set-up: dose 10 mg/kg, route oral. It counts as ADME, organism-based.
Data set [34] in a line: Volume of distribution at steady state in iv dosed rat. The following applies: in vivo, read-out: Vdss. It counts as ADME, organism-based.
The nature of data set [35]: Oral bioavailability in rat. It counts as ADME, organism-based. The following applies: in vivo.
Data set [36] is described as follows: Cmax in rat at 1 mg/kg, po. Set-up: dose 1 mg/kg, route oral. The following applies: in vivo. The data set is classed as ADME, organism-based.
Data set [37] is described as follows: Apparent volume of distribution in iv dosed rat. It counts as ADME, organism-based. The following applies: in vivo, read-out: Vz.
The nature of data set [38]: Clearance in iv dosed rat. The following applies: in vivo. It counts as ADME, organism-based.
Data set [39] in a line: Half life in iv dosed rat. It counts as ADME, organism-based. Particulars: in vivo.
A short description of data set [40]: Plasma concentration in rat at 1 mg/kg, po after 24 hrs. It counts as ADME, organism-based. On the set-up: dose 1 mg/kg, route oral.

For orientation: AUC(0-inf) means total exposure, with the tail of the curve extrapolated. One may read the Cmax as the maximum level reached in the sampled fluid or tissue. By IC50 is commonly meant the concentration needed to halve the response being measured. `CCNc1ncc(N(C(C)C)S(C)(=O)=O)c(N[C@@H](Cc2ccc(OC(=O)N3CCCC3)cc2)C(=O)O)n1`: the AUC(0-inf) in [1] is 6.8 µg·h/mL. The compound further had a Cmax in data set [2] of 1400 ng/mL. In addition, the figures for the IC50 in data set [3] and in data set [4] were 23.3 nM and 4820 nM, respectively.

In general, bioavailability refers to dose-corrected exposure relative to a reference, in per cent. Read a low bioavailability as poor availability. As a reminder, the clearance is a measure of how efficiently the substance is removed, as volume per time. Read a low clearance as inefficient removal. Usually half-life stands for the time in which the quantity being followed falls by half. In the case of `CCN(CC)c1ncc(N(C(C)C)S(C)(=O)=O)c(N[C@@H](Cc2ccc(OC(=O)N3CCCC3)cc2)C(=O)O)n1`, in data set [5], the concentration at 12 h came to 2500 ng/mL. Moreover, in data set [6], the outcome was inactive. Moreover, the Drug metabolism entry in [7] and in data set [8] was “Active” each time. Besides, the concentration at 24 h was 100000 ng/mL in data set [9]; 43100 ng/mL in data set [10]; 28500 ng/mL in data set [11]; 13000 ng/mL in data set [12]; 3380 ng/mL in data set [14]; 71400 ng/mL in data set [15]. In addition, the concentration at 24 h in data set [16] was determined as 13600 ng/mL; in data set [17], 46200 ng/mL; in [18], 4250 ng/mL; in [19], 1010 ng/mL; in data set [20], 358 ng/mL; in [40], 110 ng/mL. Further, the Activity result in [13] is recorded as “Non-toxic”. For the same compound, the AUC(0-inf) was 4480 µg·h/mL in data set [21]; 2980 µg·h/mL in [22]; 275 µg·h/mL in data set [23]; 1260 µg·h/mL in data set [24]; 76 µg·h/mL in [25]; 24.2 µg·h/mL in [26]. Moreover, the total exposure AUC(0-inf) stood at 5.9 µg·h/mL in [28] and 221 µg·h/mL in data set [1]. Besides, the Cmax in [27] came to 214000 ng/mL; in data set [29] it was 153000 ng/mL; in data set [30] it was 17400 ng/mL; in [31] it was 105000 ng/mL; in [32], 1100 ng/mL; in [33], 3600 ng/mL. Also, the Cmax in [36] was 230 ng/mL; in [2], 16500 ng/mL. Moreover, the results for the Vd in data set [34] and in data set [37] were 0.068 L/kg and 0.108 L/kg, respectively. The compound further yielded a bioavailability in [35] of 17%. This compound also showed a clearance in data set [38] of 0.172 mL/min/kg. In addition, the half-life in data set [39] is 7.3 h.
